Laboratory results taken from patent US20030108620A1, “Pharmaceutical composition comprising a physiologically acceptable vanadium compound, salt or complex and at least a component selected from a na+/hinhibitors, cyclo-oxygenase inhibitors and caspase inhibitors” (priority 1999, published 2003).

What was measured:
[1] = test system: hearts of phenobarbital anaesthetized rats; test: Infarcted area after 60 minutes coronary artery occlusion and 180 minutes of reperfusion in anaesthetized rats; assay type: in vivo, rat; conditions: for LA/AR ratio: normothermia (36.5-37.5° C.), mean±standard error margin, n=6, P<0.001, pretreated 25 minutes prior to CAO; for IA (% AR) / % Reduction: rat, 60 min CAO and 180 min reperfusion; for IA (% AR): i.v. bolus 25 minutes prior to CAO, BMOV 3.3 mg/kg, DMA 3.0 mg/kg; for % Reduction: reduction of IA (% AR) versus control
Protocol: Area at risk (AR) and infarcted area (IA) were determined in hearts of phenobarbital anaesthetized rats after 60 minutes coronary artery occlusion (CAO) and 180 minutes of reperfusion. […] The mean AR expressed as percentage of the left ventricle was not different between the control and the experimental group.

[2] = test system: deep burn wounds, dermis; test: Deep burn wound model in the Yorkshire pig, preservation of the dermis; assay type: in vivo, Yorkshire White; conditions: intravenously in a single dose; for % Preservation of dermis: equal dose in g/kg bodyweight
Excerpt: The Yorkshire pig has been chosen as the experimental animal because of all animal species this domestic pig seems to be the one with morphological and functional skin characteristics nearest to human skin and so best fulfils the requirements of a model for human skin. In basic architecture it resembles human skin in the relative thickness of the epidermis and dermis, the presence of epidermal ridges, a distinct dermal papillary layer and a deep layer of subdermal fat. Compared to human the elastic fibre content of porcine dermis is relatively low, but higher than in any other species. […] Studies on the proliferation rate of porcine epidermis show parallels with those of humans. The keratinous proteins are similar. Unlike the skin of rodents, the follicular pattern in pigs and humans is relatively sparse and arranged as single hairs or in groups of two or three follicles. […] The regulation of body temperature by the skin is more evident in humans than in the pig. In the skin of the pig no eccrine glands are found. It does have apocrine glands, but their role in thermoregulation remains debatable. The vascular anatomy of pig skin consists of a three layered network; lower, mid-dermal and sub epidermal. The size, orientation and distribution of the vessels are strikingly similar to human skin, but it does differ from humans in that the sub epidermal network is less dense. The vascularisation of the lower region of the follicle corresponds to that in humans. The healing of deep dermal bums, which depends on this phenomenon, might also be analogous. Studies on the thermal properties of porcine skin as a function of depth have been performed by measuring the tissue water content.
Protocol 1a: Twelve identical deep burn wounds were inflicted in each animal. The animal model used is developed in the Burn Research Institute (Beverwijk, The Netherlands) and is a standard for all of the experimental burn wound research. The model is also accepted by the animal experimental commission of the University of Amsterdam.
Protocol 1b: Six biopsies of 6 mm of the burned area were taken from each big and transferred to a non-burned area. Six biopsies of 6 mm of the non-burned area were be taken from each pig and transferred to a burned area. (Determination of the indirect injury) Animals: pig, Yorkshire White, female, +/− 30 kg. […]

[3] = test system: swine myocardium; conditions: also when administered after the onset of ischaemia; cited from earlier work

Compound | LA/AR ratio [1] [%] | IA (% AR) [1] [% AR] | % Reduction [1] [%] | protection of structures in the dermis (deep vascular plexus, hair-adnexes, sweat glands) [2] | % Preservation of dermis [2] | infarct size [3]
CN(C)c1nc(N)c(C(=O)N=C(N)N)nc1Cl [DMA, dimethylamiloride] | 45±3 | 55 | 21 | protected | 20% | –
Cc1occc(=O)c1[O-].Cc1occc(=O)c1[O-].[O]=[V+2] [BMOV, bis(maltolato)oxovanadium(IV)] | 45±3 | 45 | 36 | protected | 40-50% | –
CS(=O)(=O)O.CS(=O)(=O)c1cc(C(=O)NC(=N)N)ccc1N1CCCCC1 [HOE 694, (3-methylsulfonyl-4-piperidinobenzoyl)-guanidine methanesulfonate] | – | – | – | – | – | substantial reduction of the infarct size
